In patent US11376255B2, “Thiocarbamate derivatives as A2A inhibitors, pharmaceutical composition thereof and combinations with anticancer agents” (iTeos Belgium SA, priority 2018, dated 2022):

Experiments:
MCA205 tumor cells = assay: Syngeneic MCA205 experimental fibrosarcoma model in combination with Oxaliplatin; format: in vivo, C57BL/6 mice; details: Oxaliplatin 10 mg/kg i.p. single administration at D11, single agent; p=0.0202
Excerpt: MCA205 tumor cells were inoculated subcutaneously into the right flank of C57BL/6 mice. When tumors reached an average size of about 80 mm^3, mice were randomly allocated into groups.

Hepa 1-6 tumor cells = assay: Syngeneic HEPA1-6 mouse liver tumor model; format: in vivo, C57BL/6 mice; details: 3 mg/kg p.o. BID, single agent; calculated on Day 22
Excerpt: This study evaluated the anti-tumor activity of Compound 7 in a mouse hepatoma model (NCR-A2A-032).
C57BL/6 female mice (8 weeks old) were inoculated subcutaneously in the right flank region with Hepa 1-6 tumor cells (on day 0). When tumor size reached about 50 mm^3 (on Day 4), mice were randomly allocated into experimental groups and treatment was initiated from day 4 to 25.

[1] = system: A20 mouse B-cell tumor cells; assay: Syngeneic A20 experimental lymphoma model in combination with anti-PD-L1; format: in vivo, BALB/c mice; details: for TGI: day 23
Description: In this study the anti-tumor efficacy of Compound 7 was assessed either as single agent (monotherapy) or in combination with antagonist anti-Programmed Death-Ligand 1 (anti-PD-L1) monoclonal antibody (10F.9G2, BioXcell) in a model of B cell lymphoma model. (NCR-A2A-031).
BALB/c female mice (8 weeks old) were inoculated with A20 mouse B-cell tumor cells, subcutaneously in the right lower flank region (day 0). When tumors reached a size of about 50 mm^3 (Day 7), mice were allocated randomly into groups and treatment was initiated.

CT26 mouse tumor cells = assay: Syngeneic CT26 experimental colon cancer model in combination with Doxorubicin and/or anti-TIGIT mAb
Human CD3+ T cells = assay: Human T cell activation assay in presence of ATP (CFSE proliferation, TNFα AlphaLISA); details: ATP 100 μM, 72 hours
Description: PBMC and CD3^+ T cell isolation. Venous blood from healthy volunteers was obtained via ImmuneHealth (Centre Hospitalier Universitaire Tivoli, La Louviere, Belgium). Peripheral blood mononuclear cells (PBMCs) were collected by density gradient centrifugation, using SepMate-50 tubes (StemCell Technologies, Grenoble, France) and Lymphoprep (Axis-shield, Oslo, Norway) according to the manufacturer's instructions. PBMCs were stored in heat inactivated foetal bovine serum (hiFBS; Gibco, ThermoFisher Scientific, Merelbeke, Belgium) containing 10% DMSO in liquid nitrogen until required. PBMCs were thawed and washed into PBS (with 10% hiFBS) and labelled with 1 μM CFSE (Life Technologies) at room temperature for 5 minutes. Cells were washed into StemCell isolation buffer and CD3^+ T cells were isolated by immunomagnetic negative selection, using the EasySep Human T Cell Isolation Kit (StemCell Technologies) as per manufacturer's instructions.
Human T cell activation assay. […]
Cells were placed in a 37° C. humidified tissue culture incubator with 5% CO2 for 72 hours. […] Proliferation of CD4^+ T cells was assessed by determining CFSE dilution by flow cytometry using a BD LSRFortessa (BD Biosciences). Supernatants were later thawed and TNFα was quantified using the AlphaLISA Human TNFα Biotin-Free Detection Kit (AL325; Perkin-Elmer, Zaventem, Belgium), according to the manufacturer's instructions.

O=C1[O][Pt]2([NH][C@@H]3CCCC[C@H]3[NH]2)[O]C1=O [Oxaliplatin]
tumor growth compared to Vehicle (MCA205 tumor cells): significant delay in tumor growth

C[S@@+]([O-])CCOc1cc(N2CCN(CCn3c(=O)sc4c3nc(N)n3nc(-c5ccco5)nc43)CC2)c(F)cc1F (racemic) [Compound 7, (R,S)-5-amino-3-(2-(4-(2,4-difluoro-5-(2-(methylsulfinyl)ethoxy)phenyl)piperazin-1-yl)ethyl)-8-(furan-2-yl)thiazolo[5,4-e][1,2,4]triazolo[1,5-c]pyrimidin-2(3H)-one]
tumor growth inhibition (TGI) (Hepa 1-6 tumor cells): 44%
TGI ([1]; Compound 7 0.3 mg/kg p.o. BID in combination with anti-PD-L1 mAb 5 mg/kg i.p. Q3D×3): 76%
TGI ([1]; Compound 7 3 mg/kg BID in combination with anti-PD-L1 mAb 5 mg/kg i.p. Q3D×3): 82%
interaction with anti-PD-L1 mAb on growth of established A20 tumor (statistical analysis) ([1]; combination with anti-PD-L1 mAb, p=0.017): synergises with anti-PD-L1 mAb

COc1cccc2c1C(=O)c1c(O)c3c(c(O)c1C2=O)C[C@@](O)(C(=O)CO)C[C@@H]3O[C@H]1C[C@H](N)[C@H](O)[C@H](C)O1 [Doxorubicin]
anti-tumor efficacy compared to anti-TIGIT mAb or Doxorubicin stand-alone (CT26 mouse tumor cells; Doxorubicin 6 mg/kg in combination with anti-TIGIT mAb 1 mg/kg, p=0.008 and p=0.0002): improved anti-tumor efficacy
tumor growth (CT26 mouse tumor cells; Doxorubicin 6 mg/kg on day 10 and 14, single agent, p=0.14): no significant effect on tumor growth
complete responders (CR) (CT26 mouse tumor cells; anti-TIGIT+Doxorubicin combination, out of 10 mice): one

CCN(CC)c1ncnc2c1ncn2[C@@H]1O[C@H](COP(=O)(O)OP(=O)(O)C(Br)(Br)P(=O)(O)O)[C@@H](O)[C@H]1O [ARL67156]
restoration of TNFα production inhibited by ATP (Human CD3+ T cells; CD39 inhibitors ARL67156 100 μM and POM-1 10 μM without compound 8a): approximately 50%
CD4+ T cell proliferation inhibited by ATP (Human CD3+ T cells; combination of CD39 inhibitors ARL67156 100 μM and POM-1 10 μM): almost completely rescued
